According to PubChem BioAssay (NCI):
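Exposure lasted 48 hours, with cells grown in 96-well plates and compounds tested at five concentrations. TGI: total growth inhibition.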

Experiments:
Test in all cases: DTP human tumour cell line panel, 48 h
786-0 renal = tested on: 786-0 renal
A498 renal = tested on: A498 renal
A549 NSCLC = tested on: A549 NSCLC
ACHN renal = tested on: ACHN renal
CAKI-1 renal = tested on: CAKI-1 renal
CCRF-CEM leukemia = tested on: CCRF-CEM leukemia
COLO 205 colon = tested on: COLO 205 colon
DLD-1 colon = tested on: DLD-1 colon
DMS 114 small cell lung = tested on: DMS 114 small cell lung
DMS 273 small cell lung = tested on: DMS 273 small cell lung
EKVX NSCLC = tested on: EKVX NSCLC
HCC-2998 colon = tested on: HCC-2998 colon
HCT-116 colon = tested on: HCT-116 colon
HCT-15 colon = tested on: HCT-15 colon
HL-60(TB) leukemia = tested on: HL-60(TB) leukemia
HOP-18 NSCLC = tested on: HOP-18 NSCLC
HOP-62 NSCLC = tested on: HOP-62 NSCLC
HOP-92 NSCLC = tested on: HOP-92 NSCLC
HT29 colon = tested on: HT29 colon
IGROV1 ovarian = tested on: IGROV1 ovarian
K-562 leukemia = tested on: K-562 leukemia
KM12 colon = tested on: KM12 colon
KM20L2 colon = tested on: KM20L2 colon
LOX IMVI melanoma = tested on: LOX IMVI melanoma
LXFL 529 NSCLC = tested on: LXFL 529 NSCLC
M14 melanoma = tested on: M14 melanoma
M19-MEL melanoma = tested on: M19-MEL melanoma
MALME-3M melanoma = tested on: MALME-3M melanoma
MOLT-4 leukemia = tested on: MOLT-4 leukemia
NCI-H226 lung = tested on: NCI-H226 lung
NCI-H23 lung = tested on: NCI-H23 lung
NCI-H460 lung = tested on: NCI-H460 lung
NCI-H522 lung = tested on: NCI-H522 lung
OVCAR-3 ovarian = tested on: OVCAR-3 ovarian
OVCAR-4 ovarian = tested on: OVCAR-4 ovarian
OVCAR-5 ovarian = tested on: OVCAR-5 ovarian
OVCAR-8 ovarian = tested on: OVCAR-8 ovarian
RPMI-8226 leukemia = tested on: RPMI-8226 leukemia
RXF 393 renal = tested on: RXF 393 renal
RXF-631 renal = tested on: RXF-631 renal
SF-268 CNS = tested on: SF-268 CNS
SF-295 CNS = tested on: SF-295 CNS
SF-539 CNS = tested on: SF-539 CNS
SK-MEL-2 melanoma = tested on: SK-MEL-2 melanoma
SK-MEL-28 melanoma = tested on: SK-MEL-28 melanoma
SK-MEL-5 melanoma = tested on: SK-MEL-5 melanoma
SK-OV-3 ovarian = tested on: SK-OV-3 ovarian
SN12C renal = tested on: SN12C renal
SNB-19 CNS = tested on: SNB-19 CNS
SNB-75 CNS = tested on: SNB-75 CNS
SNB-78 CNS = tested on: SNB-78 CNS
SR leukemia = tested on: SR leukemia
SW-620 colon = tested on: SW-620 colon
TK-10 renal = tested on: TK-10 renal
U251 CNS = tested on: U251 CNS
UACC-257 melanoma = tested on: UACC-257 melanoma
UACC-62 melanoma = tested on: UACC-62 melanoma
UO-31 renal = tested on: UO-31 renal
XF 498 CNS = tested on: XF 498 CNS

Measured: TGI

CC(=O)Nc1ccc(C2C(C(=O)Nc3ccccc3C)=C(C)NC(C)=C2C(=O)Nc2ccccc2C)cc1
> 31.6 µM: KM12 colon
> 26.2 µM: MOLT-4 leukemia
> 100 µM: all other assays above

C[Si](C)(C)/N=C1\N2C(=NC1(C(F)(F)F)C(F)(F)F)Sc1ccccc12
not listed: SK-MEL-28 melanoma
> 50 µM: all other assays above
